{"source": "patent US6907280B2", "about": "“Method and apparatus for objectively measuring pain, pain treatment and other related techniques” (The General Hospital Corporation, priority 1999, dated 2005)", "key": {"[1]": {"test_system": "brainstem region spV and thalamus", "assay": "Heat/capsaicin sensitization model on the face: fMRI of spV and thalamus", "format": "in vivo, human", "procedure": "Referring now to FIG. 13, surrogate models of sensitization are explained. Activation in the spV and thalamus following allodynia produced by a heat-capsaicin model in a healthy volunteer are, together, different than in acute pain.\n(§1) In one experiment, the following paradigm was used. First allodynia was induced by application of heat in the form of a heat probe as described above to portions of the face of a subject. The heat was applied at a temperature of 44° C. for time period of 5 minutes. Next, a 0.075% capsaicin cream was applied for 20 minutes in the same facial area where the heat probe had been. The capsaicin cream was modified following the method described in “A new human experimental pain model: the heat/capsaicin sensitization model,” Petersen and Rowbotham, Neuroreport. 1999; 10(7):1511-6. Allodynia was produced by the application of normally non-noxious brush and 41 ° C. stimuli to the right (R) and left (L) V2 division of the trigeminal node.\nCurve 1306 represents a zero baseline signal. Curve 1300 is plotted as percent signal change vs. time (seconds).\nReferring now to FIG. 13A, a curve 1310 representing the response of the thalamus to a series of brush strokes of an example of pain 2 is shown. Curve 1312 represents a zero baseline signal. The brush strokes are applied during time periods designated 1314a, 1314b."}, "[2]": {"assay": "Heat/capsaicin sensitization model on the face: VAS pain ratings", "format": "in vivo, human", "conditions": "11 point VAS 0-10", "procedure": "as §1\nFor the 5 minute thermal application, the capsaicin application and the pain induced by normally non-noxious mechanical and thermal stimuli to the right or left V2 region, the subjects rated the intensity of the pain they experienced using a conventional on-line VAS rating scheme (i.e. an 11 point visual analogue scale 0-10; where 0=no pain and 10=maximum pain). The subjects rated the 5 minute thermal application and the capsaicin application on the V2R as approximately 5 and 2.5, respectively, on the VAS rating scale. The application of the brush to the V2R region was rated as a 2.5 on the VAS scale and the brush to the V2L region (i.e. the untreated V2 region) produced no pain. Also, application of the 41° C. probe to the V2R region was rated as approximately 9 on the VAS scale while application of the 41° C. probe to the V2L region was rated as approximately 1 on the VAS scale."}, "[3]": {"test_system": "aCG and NAc brain regions", "assay": "fMRI of 41° C. stimulus in subject sensitized to heat by capsaicin (hyperalgesia, Pain 2)", "format": "in vivo, human", "procedure": "Referring now to FIG. 8A, an image of an anterior cingulate gyrus (aCG) having an activation 750 in response to a 41° C. thermal stimulus is shown. […] It should be appreciated of course that any thermal mechanical, chemical device can be used to produce pain. […] Referring now to FIG. 8C, an image of aNAc region 760 in response to a 41° C. thermal stimulus is shown. […] The size and color of the activations shown in FIG. 8C indicate the relative activation and statistical significance respectively within each region."}, "[4]": {"test_system": "reward/aversion circuitry (GOb, NAc)", "assay": "Cocaine expectancy fMRI (prior to/shortly after infusion, before pharmacological effects)", "format": "in vivo, human", "conditions": "right hemisphere", "excerpt": "Also, drug expectancy effects can be observed prior to the infusion of cocaine vs. saline. […] These effects result from probability assessments regarding the potential of receiving a drug reward (i.e. a previously experienced reward)."}, "[5]": {"test_system": "reward/aversion circuitry (GOb, NAc, SLEA, amygdala, VT)", "assay": "Double-blind cocaine vs saline infusion fMRI in cocaine addicts (Table II Cocaine (1))", "conditions": "Outcomes, right hemisphere"}, "[6]": {"test_system": "reward/aversion circuitry (GOb, NAc, SLEA, amygdala, VT)", "assay": "Unblinded low-dose morphine vs saline infusion fMRI in drug-naive healthy volunteers", "format": "in vivo, human", "excerpt": "Error bars are included for the MRI data acquired as the 20′ time-point, the 70′ time-point, the 150′ time-point, and the 250′ time-point. Time is represented in seconds using a conversion of repetition time (TR)=6 RR intervals=6 seconds. […] (Table II)"}, "NAc brain region": {"test_system": "NAc brain region", "conditions": "4 mg/70 kg, noxious heat 46° C.", "experimental": "The saline is administered using conventional intravenous techniques. The thermal stimulus is delivered to a subject using a Peltier based thermode. The size of the activations shown in FIG. 10A indicate the relative extent within each region. The size of the region corresponds to the amount of activation in a volume in the NAc. Thus, a relatively small size corresponds to a relatively low activation volume in the NAc while a relatively large size corresponds to a relatively large activation volume in the NAc.\nThe thermal pulse 794 is provided having a pulse duration typically of about thirty seconds followed by a resting period 792b having a duration typically of about thirty seconds and during which time a neutral temperature is applied to the subject. […] In one experiment, the first temperature (i.e. the neutral temperature) corresponds to a temperature typically of about 35° C. and the second temperature (i.e. the painful temperature) corresponds to a temperature typically of about 46° C. Thus, pulses 792 and 794 in FIG. 10B vary from a temperature typically of about 35° C. to a temperature typically of about 46° C. […]"}, "VT/PAG brain region": {"test_system": "VT/PAG brain region", "assay": "fMRI of VT/PAG during intravenous naloxone infusion", "format": "in vivo, human", "conditions": "naloxone 4 mg/70 kg i.v., infusion period vs preinfusion", "procedure": "Referring to FIGS. 10E and 10F, central nervous system (CNS) activity in reward/aversive regions is shown in response to an infusion of naloxone (in a dose of 4 mg/70 kg) in a subject.\nReferring now to FIG. 10E, the VT/PAG (combined left and right components in region 820) having an activation 820 in response to an infusion of naloxone in a subject. The size and shade of the region 420a indicates the extent of activation and statistical significance respectively within the region. […] In region 820, a darker shade of gray indicates a less significant activation while a region indicated by a lighter shade of gray indicates a more significant activation.\nThe period 822a has a duration typically of about five minutes followed by the infusion period 822b having a duration typically of about five minutes.\nThe response is represented by curve 828 showing preinfusion (white background) and post-infusion (stippled background) time points.\nAs is known, the VT/PAG is part of the reward/aversion circuitry in the brain and since infusion of naloxone elicits a corresponding decrease (as measured by percentage signal change) in the VT/PAG response, the VT/PAG is said to be negatively valenced with respect to a drug that affects pain function, and analgesic responses to pain."}, "[7]": {"conditions": "Outcomes, Morphine, right hemisphere"}}}
{"smiles": "COc1cc(CNC(=O)CCCC/C=C/C(C)C)ccc1O", "note": "[capsaicin]", "values": [{"measurement": "Ipsilateral spV activation", "setting": "[1]; 41° C. thermal probe to V2 skin treated with capsaicin", "value": "activation in the ipsilateral spV was observed"}, {"measurement": "Contralateral thalamus signal change", "setting": "[1]; brush induced allodynia, heat-capsaicin model, p<0.01 t-test", "value": "decrease in signal"}, {"measurement": "Pain intensity rating of the capsaicin application", "setting": "[2]; 0.075% capsaicin cream 20 minutes on V2R", "value": "~2.5"}, {"measurement": "Pain intensity rating of 41° C. probe on treated region", "setting": "[2]; 41° C. probe to V2R after heat/capsaicin", "value": "approximately 9"}, {"measurement": "Pain intensity rating of brush on treated region", "setting": "[2]; brush to V2R after heat/capsaicin", "value": 2.5}, {"measurement": "NAc signal change to thermal pulse", "setting": "[3]", "value": "negative percentage change"}, {"measurement": "aCG signal change to thermal pulse", "setting": "[3]", "value": "positive percentage change"}]}
{"smiles": "COC(=O)[C@H]1[C@@H](OC(=O)c2ccccc2)C[C@@H]2CC[C@H]1N2C", "note": "[cocaine]", "values": [{"measurement": "Activation, Gob R", "setting": "[4]", "value": "X^2"}, {"measurement": "Activation, Amygdala R", "setting": "[5]", "value": "(X)"}, {"measurement": "Activation, SLEA R", "setting": "[5]", "value": "(X)"}]}
{"smiles": "CN1CC[C@]23c4c5ccc(O)c4O[C@H]2[C@@H](O)C=C[C@H]3[C@H]1C5", "note": "[morphine]", "values": [{"measurement": "Activation, Gob R", "setting": "[6]; [7]", "value": "(X)"}, {"measurement": "Activation, NAc R", "setting": "[6]; [7]", "value": "X^3"}, {"measurement": "Activation, SLEA R", "setting": "[6]; [7]", "value": "X^2"}, {"measurement": "Laterality of NAc signal changes", "setting": "[6]; averaged time-course, right and left NAc, morphine vs saline", "value": "bilateral NAc changes"}, {"measurement": "Valence of NAc signal", "setting": "[6]; drug reward", "value": "positively valenced signal"}, {"measurement": "Activation of reward regions such as the NAc", "setting": "[6]; low dose morphine, healthy volunteers", "value": "activation"}, {"measurement": "Subjective effect", "setting": "[6]; very low doses of morphine", "value": "mild euphoria"}, {"measurement": "Analgesic effect determined from NAc activation", "setting": "NAc brain region", "value": "attenuates pain"}]}
{"smiles": "C=CCN1CC[C@]23c4c5ccc(O)c4O[C@H]2C(=O)CC[C@@]3(O)[C@H]1C5", "note": "[naloxone]", "values": [{"measurement": "VT/PAG signal change during infusion", "setting": "VT/PAG brain region", "value": "negative percent change"}]}
